Reference: patent publication US20160257997A1, “METHODS FOR WHOLE-CELL ANALYSIS OF GRAM-POSITIVE BACTERIA” (AdvanDx, Inc., priority 2009, published 2016)
≈ marks a conversion by molar mass, not a printed value. Read-outs that look alike come from different tables or passages of the source.

Experiments:
S. aureus (MRSA) = assay: cefoxitin Etest susceptibility testing (MIC), MRSA; assay type: cell-based, Staphylococcus aureus
MS-CNS = assay: cefoxitin Etest susceptibility testing (MIC), MS-CNS; assay type: cell-based, coagulase-negative staphylococci
S. aureus (MSSA) = assay: cefoxitin Etest susceptibility testing (MIC), MSSA; assay type: cell-based, Staphylococcus aureus
MR-CNS = assay: cefoxitin Etest susceptibility testing (MIC), MR-CNS; assay type: cell-based, coagulase-negative staphylococci

Q: What does the source list for `CO[C@@]1(NC(=O)Cc2cccs2)C(=O)N2C(C(=O)O)=C(COC(N)=O)CS[C@@H]21` [cefoxitin]?
A: MIC (S. aureus (MRSA); Staphylococcus aureus, ATCC 33591 / MRSA, cefoxitin Etest, Reference (ATCC 33591), SCCmec type III, read-out: MIC): ≥ 256 mg/L; MIC (S. aureus (MRSA); Staphylococcus aureus, ATCC 33591 / MRSA, cefoxitin, strain 2, MRSA ATCC 33591, SCCmec III, read-out: MIC Etest): ≥ 256 mg/L; MIC (S. aureus (MRSA); Staphylococcus aureus, ATCC 43300 / MRSA, cefoxitin Etest, Reference (ATCC 43300), SCCmec type II, read-out: MIC): 128 mg/L (≈ 299 µM); MIC (S. aureus (MRSA); Staphylococcus aureus, ATCC 43300 / MRSA, cefoxitin, strain 39, MRSA ATCC 43300, SCCmec II, read-out: MIC Etest): 128 mg/L (≈ 299 µM); MIC (S. aureus (MRSA); Staphylococcus aureus, MRSA / NCTC 10422, cefoxitin Etest, Reference (NCTC10422), SCCmec type Ib, read-out: MIC): ≥ 256 mg/L; MIC (S. aureus (MRSA); Staphylococcus aureus, MRSA / USA300, cefoxitin Etest, Reference (USA300), SCCmec type IV, read-out: MIC): 48 mg/L (≈ 112 µM); MIC (S. aureus (MRSA); Staphylococcus aureus, MRSA / USA300, cefoxitin, strain 886, MRSA USA300, SCCmec IV, read-out: MIC Etest): 48 mg/L (≈ 112 µM); MIC (S. aureus (MRSA); Staphylococcus aureus, MRSA / USA500, cefoxitin Etest, Reference (USA500), SCCmec type IV, read-out: MIC): 48 mg/L (≈ 112 µM); MIC (S. aureus (MRSA); Staphylococcus aureus, MRSA, cefoxitin Etest, Reference (Clinical COL), SCCmec type I, read-out: MIC): ≥ 256 mg/L; MIC (S. aureus (MRSA); Staphylococcus aureus, MRSA, cefoxitin Etest, Reference (Clinical EU), SCCmec type Ia, read-out: MIC): ≥ 256 mg/L; MIC (S. aureus (MRSA); Staphylococcus aureus, MRSA, cefoxitin Etest, Reference (DK, SSI), SCCmec type IIIa, read-out: MIC): ≥ 256 mg/L; MIC (S. aureus (MRSA); Staphylococcus aureus, MRSA, cefoxitin Etest, Reference (DK, SSI), SCCmec type V, read-out: MIC): 12 mg/L (≈ 28.1 µM); MIC (S. aureus (MRSA); Staphylococcus aureus, MRSA, cefoxitin, strain 9, MRSA EU, SCCmec I, read-out: MIC Etest): ≥ 256 mg/L; MIC (S. aureus (MRSA); Staphylococcus aureus, MRSA, cefoxitin, strain 11, MRSA EU, SCCmec II, read-out: MIC Etest): ≥ 256 mg/L; MIC (S. aureus (MRSA); Staphylococcus aureus, MRSA, cefoxitin, strain 13, MRSA, SCCmec IIIa, read-out: MIC Etest): ≥ 256 mg/L; MIC (S. aureus (MRSA); Staphylococcus aureus, MRSA, cefoxitin, strain 306, MRSA DK, SCCmec V, read-out: MIC Etest): 12 mg/L (≈ 28.1 µM); MIC (S. aureus (MRSA); Staphylococcus aureus, MRSA, cefoxitin, strain 320, MRSA clinical DK, SCCmec IV, read-out: MIC Etest): ≥ 256 mg/L; MIC (S. aureus (MRSA); Staphylococcus aureus, MRSA, cefoxitin, strain 1468, MRSA COL, SCCmec I, read-out: MIC Etest): ≥ 256 mg/L; MIC (S. aureus (MRSA); cefoxitin Etest, strain 2, MRSA, Reference (ATCC 33591), type III): ≧256; MIC (S. aureus (MRSA); cefoxitin Etest, strain 9, MRSA, Reference EU, type I): ≧256; MIC (S. aureus (MRSA); cefoxitin Etest, strain 10, MRSA, Reference EU, type Ia): ≧256; MIC (S. aureus (MRSA); cefoxitin Etest, strain 11, MRSA, Reference EU, type II): ≧256; MIC (S. aureus (MRSA); cefoxitin Etest, strain 12, MRSA, Reference EU, type III): ≧256; MIC (S. aureus (MRSA); cefoxitin Etest, strain 13, MRSA, Reference EU, type IIIa): ≧256; MIC (S. aureus (MRSA); cefoxitin Etest, strain 15, MRSA, Clinical DK, type IV/ST80): 48 mg/L (≈ 112 µM); MIC (S. aureus (MRSA); cefoxitin Etest, strain 39, MRSA, Reference (ATCC 43300), type II (EVIGENE)): 128 mg/L (≈ 299 µM); MIC (S. aureus (MRSA); cefoxitin Etest, strain 295, MRSA, Reference DK, type IA): ≧256; MIC (S. aureus (MRSA); cefoxitin Etest, strain 297, MRSA, Reference DK, type IA, EVIGENE IV): 48 mg/L (≈ 112 µM); MIC (S. aureus (MRSA); cefoxitin Etest, strain 298, MRSA, Reference DK, type II): ≧256; MIC (S. aureus (MRSA); cefoxitin Etest, strain 299, MRSA, Reference DK, type II): ≧256; MIC (S. aureus (MRSA); cefoxitin Etest, strain 300, MRSA, Reference DK, type II): ≧256; MIC (S. aureus (MRSA); cefoxitin Etest, strain 302, MRSA, Reference DK, type IIIA): ≧256; MIC (S. aureus (MRSA); cefoxitin Etest, strain 303, MRSA, Reference DK, type III): ≧256; MIC (S. aureus (MRSA); cefoxitin Etest, strain 304, MRSA, Reference DK, type IV): 48 mg/L (≈ 112 µM); MIC (S. aureus (MRSA); cefoxitin Etest, strain 305, MRSA, Reference DK, type III): ≧256; MIC (S. aureus (MRSA); cefoxitin Etest, strain 306, MRSA, Reference DK, type V): 12 mg/L (≈ 28.1 µM); MIC (S. aureus (MRSA); cefoxitin Etest, strain 307, MRSA, Reference DK, type IV): 48 mg/L (≈ 112 µM); MIC (S. aureus (MRSA); cefoxitin Etest, strain 320, MRSA, Clinical DK, type IV (EVIGENE)): ≧256; MIC (S. aureus (MRSA); cefoxitin Etest, strain 321, MRSA, Clinical DK, type V (EVIGENE)): 96 mg/L (≈ 225 µM); MIC (S. aureus (MRSA); cefoxitin Etest, strain 460, MRSA, Reference, Tokyo, type V): 12 mg/L (≈ 28.1 µM); MIC (S. aureus (MRSA); cefoxitin Etest, strain 463, MRSA, Reference (NCTC10422), type Ib): ≧256; MIC (S. aureus (MRSA); cefoxitin Etest, strain 557, MRSA, Reference (USA300), type IV): 64 mg/L (≈ 150 µM); MIC (S. aureus (MRSA); cefoxitin Etest, strain 559, MRSA, Reference (USA300), type IV): ≧256; MIC (S. aureus (MRSA); cefoxitin Etest, strain 560, MRSA, Reference (USA500), type IV): 48 mg/L (≈ 112 µM); MIC (S. aureus (MRSA); cefoxitin Etest, strain 797, MRSA, Clinical DK, type II (EVIGENE)): 64 mg/L (≈ 150 µM); MIC (S. aureus (MRSA); cefoxitin Etest, strain 801, MRSA, Clinical DK, type II (EVIGENE)): ≧256; MIC (S. aureus (MRSA); cefoxitin Etest, strain 812, MRSA, Clinical DK, type II (EVIGENE)): ≧256; MIC (S. aureus (MRSA); cefoxitin Etest, strain 886, MRSA, Reference (FPR3757, USA300), type IV): 48 mg/L (≈ 112 µM); MIC (S. aureus (MRSA); cefoxitin Etest, strain 920, MRSA, Clinical DK, type I (EVIGENE)): ≧256; MIC (S. aureus (MRSA); cefoxitin Etest, strain 924, MRSA, Clinical DK, type IV (EVIGENE)): 96 mg/L (≈ 225 µM); MIC (S. aureus (MRSA); cefoxitin Etest, strain 926, MRSA, Clinical DK, type IV (EVIGENE)): 48 mg/L (≈ 112 µM); MIC (S. aureus (MRSA); cefoxitin Etest, strain 927, MRSA, Clinical DK, type IV): 24 mg/L (≈ 56.1 µM); MIC (S. aureus (MRSA); cefoxitin Etest, strain 931, MRSA, Clinical DK, type III (EVIGENE)): ≧256; MIC (S. aureus (MRSA); cefoxitin Etest, strain 1184, MRSA, Reference (ATCC BAA-1708), type II (EVIGENE)): 96 mg/L (≈ 225 µM); MIC (S. aureus (MRSA); cefoxitin Etest, strain 1468, MRSA, Reference (COL), type I): ≧256; MIC (MS-CNS; cefoxitin Etest, strain 629, MS-CNS, S. epidermidis, Reference (ATCC 14990)): 1.5 mg/L (≈ 3.51 µM); MIC (MS-CNS; cefoxitin, MS-CNS (n = 5), read-out: MIC Etest): 1.5 mg/L (≈ 3.51 µM); MIC (S. aureus (MSSA); Staphylococcus aureus, ATCC 11632 / MSSA, cefoxitin Etest, MSSA Reference (ATCC 11632), read-out: MIC): 3 mg/L (≈ 7.02 µM); MIC (S. aureus (MSSA); Staphylococcus aureus, ATCC 25923 / MSSA, cefoxitin Etest, MSSA Reference (ATCC 25923), read-out: MIC): 3 mg/L (≈ 7.02 µM); MIC (S. aureus (MSSA); Staphylococcus aureus, ATCC 25923 / MSSA, cefoxitin, strain 155, MSSA ATCC 25923, read-out: MIC Etest): 3 mg/L (≈ 7.02 µM); MIC (S. aureus (MSSA); Staphylococcus aureus, ATCC 29213 / MSSA, cefoxitin Etest, MSSA Reference (ATCC 29213), read-out: MIC): 4 mg/L (≈ 9.36 µM); MIC (S. aureus (MSSA); Staphylococcus aureus, ATCC 29213 / MSSA, cefoxitin, strain 156, MSSA ATCC 29213, read-out: MIC Etest): 4 mg/L (≈ 9.36 µM); MIC (S. aureus (MSSA); Staphylococcus aureus, cefoxitin, MSSA (n = 15), read-out: MIC Etest): 3 to 4 mg/L (≈ 7.02 to 9.36 µM); MIC (S. aureus (MSSA); cefoxitin Etest, strain 1, MSSA, Reference (ATCC 6538)): 3 mg/L (≈ 7.02 µM); MIC (S. aureus (MSSA); cefoxitin Etest, strain 21, MSSA, Clinical EU): 4 mg/L (≈ 9.36 µM); MIC (S. aureus (MSSA); cefoxitin Etest, strain 22, MSSA, Clinical DK): 4 mg/L (≈ 9.36 µM); MIC (S. aureus (MSSA); cefoxitin Etest, strain 23, MSSA, Clinical DK): 3 mg/L (≈ 7.02 µM); MIC (S. aureus (MSSA); cefoxitin Etest, strain 24, MSSA, Clinical DK): 4 mg/L (≈ 9.36 µM); MIC (S. aureus (MSSA); cefoxitin Etest, strain 26, MSSA, Clinical DK): 4 mg/L (≈ 9.36 µM); MIC (S. aureus (MSSA); cefoxitin Etest, strain 54, MSSA, Clinical EU): 4 mg/L (≈ 9.36 µM); MIC (S. aureus (MSSA); cefoxitin Etest, strain 117, MSSA, Reference (ATCC 11632)): 3 mg/L (≈ 7.02 µM); MIC (S. aureus (MSSA); cefoxitin Etest, strain 155, MSSA, Reference (ATCC 25923)): 3 mg/L (≈ 7.02 µM); MIC (S. aureus (MSSA); cefoxitin Etest, strain 156, MSSA, Reference (ATCC 29213)): 4 mg/L (≈ 9.36 µM); MIC (MR-CNS; strain 4, MR-CNS, S. epidermidis, Reference (ATCC 51625)): 32 mg/L (≈ 74.9 µM); MIC (MR-CNS; strain 154, MR-CNS, S. saccharolyticus, Reference (ATCC 14953)): ≧256; MIC (MR-CNS; strain 350, MR-CNS, S. epidermidis, Reference): ≧256; MIC (MR-CNS; strain 351, MR-CNS, S. warneri, Reference DK): 192 mg/L (≈ 449 µM); MIC (MR-CNS; strain 352, MR-CNS, S. epidermidis, Reference DK): 256 mg/L (≈ 599 µM); MIC (MR-CNS; strain 353, MR-CNS, S. hominis, Reference DK): 64 mg/L (≈ 150 µM); MIC (MR-CNS; strain 408, MR-CNS, Clinical DK): ≧256; MIC (MR-CNS; strain 412, MR-CNS, Clinical DK): ≧256; MIC (MR-CNS; strain 414, MR-CNS, Clinical DK): 256 mg/L (≈ 599 µM)
